Test results published in ChEMBL document CHEMBL5523750, “Development of Novel N-Acylhydrazone Derivatives with High Anti-obesity Activity and Improved Safety by Exploring the Pharmaceutical Properties of Aldehyde Group” (J Med Chem, 2024).
Active and inactive are the calls of the source. No cut-off for these calls is given here.

How the values were obtained:
3T3-L1 [1] = assay: Induction of DNA damage in mouse 3T3-L1 preadipocytes assessed as effect on gammaH2AX level at 20 uM incubated for 24 hrs by Western blot analysis; assay type: functional, cell-based
3T3-L1 [2] = assay: Downregulation of PPARgamma expression in mouse 3T3-L1 preadipocytes at 0.02 to 0.5 uM measured after 3 days by Western blot analysis; assay type: functional, cell-based; conditions: dose 0.02-0.5 µM, time 3.0 day
3T3-L1 [3] = assay: Downregulation of C/EBPalpha protein expression in mouse 3T3-L1 preadipocytes at 0.02 to 0.5 uM measured after 3 days by Western blot analysis; assay type: functional, cell-based; conditions: dose 0.02-0.5 µM, time 3.0 day
3T3-L1 [4] = assay: Downregulation of FAS protein expression in mouse 3T3-L1 preadipocytes at 0.02 to 0.5 uM measured after 6 days by Western blot analysis; assay type: functional, cell-based; conditions: dose 0.02-0.5 µM, time 6.0 day
3T3-L1 [5] = assay: Downregulation of ACC protein expression in mouse 3T3-L1 preadipocytes at 0.02 to 0.5 uM measured after 6 days by Western blot analysis; assay type: functional, cell-based; conditions: dose 0.02-0.5 µM, time 6.0 day
3T3-L1 [6] = assay: Activation of AMPK signaling pathway in mouse 3T3-L1 preadipocytes assessed as upregulation of AMPKalpha phosphorylation at 0.02 to 0.5 uM measured after 2 hrs by Western blot analysis; assay type: cell-based; conditions: filed as activator, dose 0.02-0.5 µM
[7] = AUC (0 to t) in Sprague-Dawley rat at 2 mg/kg, iv measured upto 24 hrs by LC-MS/MS analysis; assay type: ADME, organism-based; conditions: in vivo
[8] = AUC (0 to infinity) in Sprague-Dawley rat at 2 mg/kg, iv measured upto 24 hrs by LC-MS/MS analysis; assay type: ADME, organism-based; conditions: in vivo
[9] = MRT (0 to t) in Sprague-Dawley rat at 2 mg/kg, iv measured upto 24 hrs by LC-MS/MS analysis; assay type: ADME, organism-based; conditions: in vivo
[10] = Volume of distribution at steady state (normalized by bioavailability) in Sprague-Dawley rat at 2 mg/kg, iv measured upto 24 hrs by LC-MS/MS analysis; assay type: ADME, organism-based; conditions: in vivo
[11] = AUC (0 to t) in Sprague-Dawley rat at 5 mg/kg, po measured upto 24 hrs by LC-MS/MS analysis; assay type: ADME, organism-based; conditions: in vivo
[12] = AUC (0 to infinity) in Sprague-Dawley rat at 5 mg/kg, po measured upto 24 hrs by LC-MS/MS analysis; assay type: ADME, organism-based; conditions: in vivo
[13] = MRT (0 to t) in Sprague-Dawley rat at 5 mg/kg, po measured upto 24 hrs by LC-MS/MS analysis; assay type: ADME, organism-based; conditions: in vivo
[14] = Volume of distribution at steady state (normalized by bioavailability) in Sprague-Dawley rat at 5 mg/kg, po measured upto 24 hrs by LC-MS/MS analysis; assay type: ADME, organism-based; conditions: in vivo, read-out: Vz/F
[15] = Apparent oral clearance in Sprague-Dawley rat at 5 mg/kg, po measured upto 24 hrs by LC-MS/MS analysis; assay type: ADME, organism-based; conditions: in vivo
[16] = Oral bioavailability (0 to infinity) in Sprague-Dawley rat at 5 mg/kg measured upto 24 hrs by LC-MS/MS analysis; assay type: ADME, organism-based; conditions: in vivo
Mus musculus [17] = assay: Anti-obesity activity in high-fat diet induced male C57BL/6J mouse model assessed as mitigation of weight gain at 20 mg/kg, po administered daily for 2 weeks; assay type: functional, organism-based
Mus musculus [18] = assay: Anti-obesity activity in high-fat diet induced male C57BL/6J mouse model assessed as reduction in adipose tissue mass at 20 mg/kg, po administered daily for 2 weeks; assay type: functional, organism-based
[19] = Hepatotoxicity in male C57BL/6J mouse assessed as effect on ALT level at 20 mg/kg, po administered daily and measured after 2 weeks; assay type: toxicity, organism-based; conditions: in vivo, 336 h
Mus musculus [20] = assay: Anti-obesity activity in high-fat and high-cholesterol diet induced male C57BL/6J mouse model assessed as decrease in fat mass content at 10 mg/kg, ip administered every other day for 6 weeks; assay type: functional, organism-based
Mus musculus [21] = assay: Anti-obesity activity in high-fat and high-cholesterol diet induced male C57BL/6J mouse model assessed as reduction in body weight at 5 mg/kg, ip administered every other day for 6 weeks relative to control; assay type: functional; parameters: scale not given: the % may be the effect or the level left
Mus musculus [22] = assay: Anti-obesity activity in high-fat and high-cholesterol diet induced male C57BL/6J mouse model assessed as decrease in fat mass content at 5 mg/kg, ip administered every other day for 6 weeks; assay type: functional, organism-based
Mus musculus [23] = assay: Anti-obesity activity in high-fat and high-cholesterol diet induced male C57BL/6J mouse model assessed as attenuation of HFC diet induced liver weight at 5 to 10 mg/kg, ip administered every other day for 6 weeks; assay type: functional, organism-based; conditions: dose 5-10 mg/kg
Mus musculus [24] = assay: Anti-obesity activity in high-fat and high-cholesterol diet induced male C57BL/6J mouse model assessed as effect on brown adipose tissue weight at 5 to 10 mg/kg, ip administered every other day for 6 weeks; assay type: functional, organism-based; conditions: dose 5-10 mg/kg
Mus musculus [25] = assay: Anti-obesity activity in high-fat and high-cholesterol diet induced male C57BL/6J mouse model assessed as improvement in glucose metabolism at 10 mg/kg, ip administered every other day for 4 weeks by glucose tolerance test; assay type: functional, organism-based
Mus musculus [26] = assay: Anti-obesity activity in high-fat and high-cholesterol diet induced DIO mouse model assessed as decrease in AST level at 10 mg/kg, ip administered everyday for 6 weeks (reference value: 133.3+/-8.5 U/L); assay type: functional
Mus musculus [27] = assay: Anti-obesity activity in high-fat and high-cholesterol diet induced DIO mouse model assessed as decrease in ALP level at 10 mg/kg, ip administered everyday for 6 weeks (reference value: 72.7+/-19.7 U/L); assay type: functional
Mus musculus [28] = assay: Anti-obesity activity in high-fat and high-cholesterol diet induced DIO mouse model assessed as decrease in TCHOL level at 10 mg/kg, ip administered everyday for 6 weeks (reference value: 4.1+/-0.7 mM); assay type: functional
Mus musculus [29] = assay: Anti-obesity activity in high-fat and high-cholesterol diet induced DIO mouse model assessed as decrease in LDL-C level at 10 mg/kg, ip administered everyday for 6 weeks (reference value: 0.8+/-0.1 mM); assay type: functional
Mus musculus [30] = assay: Anti-obesity activity in high-fat and high-cholesterol diet induced DIO mouse model assessed as decrease in ALB level at 10 mg/kg, ip administered everyday for 6 weeks (reference value: 37.6+/-2.5 g/L); assay type: functional
Mus musculus [31] = assay: Anti-obesity activity in high-fat and high-cholesterol diet induced DIO mouse model assessed as decrease in ALT level at 5 mg/kg, ip administered everyday for 6 weeks (reference value: 48.6+/-13.0 U/L); assay type: functional
Mus musculus [32] = assay: Anti-obesity activity in high-fat and high-cholesterol diet induced DIO mouse model assessed as decrease in ALP level at 5 mg/kg, ip administered everyday for 6 weeks (reference value: 72.7+/-19.7 U/L); assay type: functional
Mus musculus [33] = assay: Anti-obesity activity in high-fat and high-cholesterol diet induced DIO mouse model assessed as decrease in TG level at 5 mg/kg, ip administered everyday for 6 weeks (reference value: 1.2+/-0.1 mM); assay type: functional
Mus musculus [34] = assay: Anti-obesity activity in high-fat and high-cholesterol diet induced DIO mouse model assessed as decrease in LDL-C level at 5 mg/kg, ip administered everyday for 6 weeks (reference value: 0.8+/-0.1 mM); assay type: functional
Mus musculus [35] = assay: Anti-obesity activity in high-fat and high-cholesterol diet induced DIO mouse model assessed as decrease in ALB level at 5 mg/kg, ip administered everyday for 6 weeks (reference value: 37.6+/-2.5 g/L); assay type: functional

- AUC(0-t) at 24 h [7]: 181 ng·h/mL
- AUC(0-inf) [8]: 266 ng·h/mL
- MRT last at 24 h [9]: 8.9 h
- Vz/F [10]: 144 L/kg
- AUC(0-t) at 24 h [11]: 135 ng·h/mL
- AUC(0-inf) [12]: 452 ng·h/mL
- MRT last at 24 h [13]: 12.7 h
- Vd/F [14]: 620 L/kg
- CL/F [15]: 297 mL/min/kg
- bioavailability [16]: 45.7%
Structure (SMILES): CC(=O)N/N=C/c1c(-c2nc(NCCN3CCCC3)c3ccccc3n2)[nH]c2ccccc12
- Activity (3T3-L1 [1]): Active
- Activity (3T3-L1 [2]): Active
- Activity (3T3-L1 [3]): Active
- Activity (3T3-L1 [4]): Active
- Activity (3T3-L1 [5]): Active
- Activity (3T3-L1 [6]): Active
- Activity (Mus musculus [17]): Active
- Activity (Mus musculus [18]): Active
- Activity [19]: Non-Toxic
- Activity (Mus musculus [20]): Active
- Activity (Mus musculus [21]): 6.2%
- Activity (Mus musculus [22]): Active
- Activity (Mus musculus [23]): Active
- Activity (Mus musculus [24]): inactive
- Activity (Mus musculus [25]): Active
- Activity (Mus musculus [26]): 131.1 U/L
- Activity (Mus musculus [27]): 50.7 U/L
- Activity (Mus musculus [28]): 3.8 mM
- Activity (Mus musculus [29]): 0.7 mM
- Activity (Mus musculus [30]): 34.8 g/L
- Activity (Mus musculus [31]): 44.3 U/L
- Activity (Mus musculus [32]): 61.3 U/L
- Activity (Mus musculus [33]): 1 mM
- Activity (Mus musculus [34]): 0.8 mM
- Activity (Mus musculus [35]): 37.4 g/L
